Measured values published in US20110046368A1, “LIGANDS OF 5-HT6 RECEPTORS, A PHARMACEUTICAL COMPOSITION, METHOD FOR THE PRODUCTION AND USE THEREOF” (priority 2006, published 2011).
Like-named read-outs stand apart in the source and are kept apart here.

Target: T1, serotonin 5-HT6 receptors (Homo sapiens, UniProt P50406)
T1 construct: expressed in transfected cells; host or cells: HeLa cells (membranes)
Experiment: [3H]LSD displacement from 5-HT6 receptors expressed in HeLa cell membranes
Assay type: binding
Conditions: for Interaction efficiency of compounds of the general formula 1 with 5-HT6 receptor, %: displacement of 1.5 nM [3H]LSD, tested compounds at 10 mkM, 2 hr at 37° C.
Description: Investigation of ligand activity of azaheterocyclic compounds of the general formula 1 to 5-HT6 receptor. A focused library, including 3537 azaheterocyclic compounds of the general formula 1, their geometric isomers and pharmaceutically acceptable salts were tested for ligand activity to 5-HT6 receptor. Some examples of the tested azaheterocyclic compounds of the general formula 1 are represented in Tables 1-3, including: pyrrolo[4,3-b]indoles 1.2, 1.3 (Table 1), γ-carbolines 1.5, 1.6, 1.7 (Table 2) and azepino[4,3-b]indoles 1.10, 1.12, 1.13 (Tables 3). Ligand activity was determined by the ability of azaheterocyclic compounds of the general formula 1 to displace concurrently tritium-labelled diethyl […] of lysergic acid ([^3H]LSD), specifically bound to serotonin 5-HT6 receptors, which are expressed in HeLa cells membranes [Monsma F J Jr, Shen Y, Ward R P, Hamblin M W and Sibley D R (1993). Cloning and expression of a novel serotonin receptor with high affinity for tricyclic psychotropic drugs. Mol. Pharmacol. 43:320-3271. Cells membranes were incubated with 1.5 nM [^3H]LSD for 2 hr at 37° C. without and in the presence of tested compounds of 10 mkM concentration in the medium comprising: 50 mM Tris-HCl, pH 7.4, 150 mM NaCl, 2 mM ascorbic acid and 0.001% of bovine serum albumin. Nonspecific binding of [^3H]LSD was determined in the presence of 5 mkM of serotonin (5-HT). After incubation membrane suspensions were filtered through glass microfiber filters GF/A (Millipor, USA) and the residual radioactivity was measured by scintillation counter Microbeta 1840 (PerkinElmer). Investigated compounds interacted effectively with 5-HT6 receptor.
Measurements were carried out as it is described in example 1, except that the tested compounds were taken in various concentrations and % of displacement of [^3H]LSD was plotted as a function of compound's concentration (FIG. 1), on the basis of which IC50 (concentration of halfmaximum blocking of [^3H]LSD binding) values characterizing the seeming affinity of substituted azaheterocyclic compounds of the general formula 1 to 5-HT6 receptor were calculated (Table 5).

[1] = [3H]LSD displacement at various compound concentrations, HeLa cell membranes, read-out: IC50 (concentration of halfmaximum blocking of [3H]LSD binding), seeming affinity to 5-HT6 receptor

T1 sequence (P50406 whole entry): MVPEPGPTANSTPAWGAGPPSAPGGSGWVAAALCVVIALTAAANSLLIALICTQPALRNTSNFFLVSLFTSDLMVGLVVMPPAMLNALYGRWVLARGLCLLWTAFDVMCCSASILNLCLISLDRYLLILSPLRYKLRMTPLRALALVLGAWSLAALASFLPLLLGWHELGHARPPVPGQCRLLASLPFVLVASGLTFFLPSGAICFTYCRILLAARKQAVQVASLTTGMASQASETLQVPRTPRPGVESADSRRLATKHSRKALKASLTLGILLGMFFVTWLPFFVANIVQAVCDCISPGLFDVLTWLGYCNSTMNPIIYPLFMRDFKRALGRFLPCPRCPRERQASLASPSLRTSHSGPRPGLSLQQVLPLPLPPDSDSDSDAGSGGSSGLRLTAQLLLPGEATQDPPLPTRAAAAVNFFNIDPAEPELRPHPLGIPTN

Row | Structure (SMILES) | Interaction efficiency of compounds of the general formula 1 with 5-HT6 receptor, % (HeLa cell membranes) | IC50 [1] | IC50
1 | Cc1ccc(S(=O)(=O)n2c3c(c4cc(C)ccc42)CN(C)C3)cc1 [1.2(39)] | 77% | – | –
2 | Cc1ccc2c(c1)[C@@H]1CN(C)C[C@@H]1N2CCc1ccc(C)nc1 [1.3(9)] | 27% | – | –
3 | CN1CCc2c(c3ccccc3n2Cc2ccccc2)C1 [1.5(18)] | 71% | – | –
4 | Cc1ccc2c(c1)c1c(n2CCc2ccc(C)nc2)CCN(C)C1 [1.5(20)] | 100% | 74 nM | –
5 | Cc1ccc2c(c1)C1CN(C)CCC1N2C(=O)c1ccccc1 (centres unmarked) [1.6(6)] | 52% | – | –
6 | Cc1ccc2c(c1)C1CN(C)CCC1N2S(=O)(=O)c1nc2cc(C)nc(C)n2n1 (centres unmarked) [1.6(22)] | 82% | – | –
7 | Cc1ccc2c(c1)[C@@H]1CN(C)CC[C@@H]1N2C(=O)Nc1cccc(C(F)(F)F)c1 [1.7(1)] | 47% | – | –
8 | Cc1ccc2c(c1)c1c(n2CCc2ccccn2)CCCN(C)C1 [1.10(49)] | 88% | – | –
9 | Cc1ccc(CCn2c3c(c4cc(C)ccc42)CN(C)CCC3)nc1 [1.10(50)] | 84% | 1250 nM | –
10 | Cc1ccc2c(c1)c1c(n2CCc2ccncc2)CCCN(C)C1 [1.10(51)] | 84% | 1060 nM | –
11 | Cc1ccc2c(c1)c1c(n2CCc2cccnc2)CCCN(C)C1 [1.10(53)] | 79% | 738 nM | –
12 | Cc1ccc2c(c1)[C@@H]1CNCCC[C@@H]1N2CCc1cccnc1 [1.12(12)] | 84% | – | –
13 | Cc1ccc2c(c1)[C@@H]1CNCCC[C@@H]1N2CCc1ccc(C)nc1 [1.12(13)] | 76% | – | –
14 | Cc1ccc2c(c1)[C@@H]1CN(C)CCC[C@H]1N2CCc1ccc(C)nc1 [1.13(3)] | 93% | – | –
15 | Cc1ccc2c(c1)[C@@H]1CN(C)CCC[C@H]1N2CCc1cccnc1 [1.13(13)] | 93% | – | 787 nM
